{"source": "PubChem BioAssay (NCI)", "assay_in_all_cases": "NCI tumour cell line growth inhibition, 48 h", "key": {"[1]": {"system": "SK-MEL-5 melanoma"}, "[2]": {"system": "RPMI-8226 leukemia"}, "[3]": {"system": "MOLT-4 leukemia"}, "[4]": {"system": "OVCAR-5 ovarian"}, "[5]": {"system": "IGROV1 ovarian"}, "[6]": {"system": "OVCAR-8 ovarian"}, "[7]": {"system": "NCI-H522 lung"}, "[8]": {"system": "CAKI-1 renal"}, "[9]": {"system": "SK-OV-3 ovarian"}, "[10]": {"system": "OVCAR-4 ovarian"}, "[11]": {"system": "COLO 205 colon"}, "[12]": {"system": "MDA-MB-231 breast"}, "[13]": {"system": "SF-268 CNS"}, "[14]": {"system": "NCI-H226 lung"}, "[15]": {"system": "UACC-257 melanoma"}, "[16]": {"system": "SNB-75 CNS"}, "[17]": {"system": "HT29 colon"}, "[18]": {"system": "SW-620 colon"}, "[19]": {"system": "SK-MEL-2 melanoma"}, "[20]": {"system": "NCI-H23 lung"}, "[21]": {"system": "BT-549 breast"}, "[22]": {"system": "786-0 renal"}, "[23]": {"system": "NCI/ADR-RES ovarian"}, "[24]": {"system": "SK-MEL-28 melanoma"}, "[25]": {"system": "KM12 colon"}, "[26]": {"system": "MDA-MB-435"}, "[27]": {"system": "HOP-92 NSCLC"}, "[28]": {"system": "EKVX NSCLC"}, "[29]": {"system": "PC-3 prostate"}, "[30]": {"system": "SR leukemia"}, "[31]": {"system": "ACHN renal"}, "[32]": {"system": "NCI-H460 lung"}, "[33]": {"system": "U251 CNS"}, "[34]": {"system": "HOP-62 NSCLC"}, "[35]": {"system": "DU-145 prostate"}, "[36]": {"system": "SF-295 CNS"}, "[37]": {"system": "M14 melanoma"}, "[38]": {"system": "LOX IMVI melanoma"}, "[39]": {"system": "CCRF-CEM leukemia"}, "[40]": {"system": "SN12C renal"}, "[41]": {"system": "HCT-116 colon"}, "[42]": {"system": "HL-60(TB) leukemia"}, "[43]": {"system": "MCF7 breast"}, "[44]": {"system": "TK-10 renal"}, "[45]": {"system": "HCT-15 colon"}, "[46]": {"system": "SF-539 CNS"}, "[47]": {"system": "OVCAR-3 ovarian"}, "[48]": {"system": "HCC-2998 colon"}, "[49]": {"system": "SNB-19 CNS"}, "[50]": {"system": "A498 renal"}}, "note": "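Each compound was tested at five concentrations against cells in 96-well plates for 48 hours. The concentration for 50% growth inhibition is given as GI50. TGI marks complete inhibition of growth.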"}
{"smiles": "COc1ccc2c(c1)C(=O)c1c-2n(CCCNCCO)c(=O)c2cc([N+](=O)[O-])ccc12", "values": [{"measurement": "GI50", "setting": "[1]", "value": "< 10", "unit": "nM"}, {"measurement": "TGI", "setting": "[1]", "value": "< 25.1", "unit": "nM"}, {"measurement": "GI50", "setting": "[2]", "value": "< 10", "unit": "nM"}, {"measurement": "TGI", "setting": "[2]", "value": 46.9, "unit": "nM"}, {"measurement": "GI50", "setting": "[3]", "value": "< 10", "unit": "nM"}, {"measurement": "TGI", "setting": "[3]", "value": "< 10", "unit": "nM"}, {"measurement": "GI50", "setting": "[4]", "value": "< 12.8", "unit": "nM"}, {"measurement": "TGI", "setting": "[4]", "value": 239, "unit": "nM"}, {"measurement": "GI50", "setting": "[5]", "value": 28.3, "unit": "nM"}, {"measurement": "TGI", "setting": "[5]", "value": 1810, "unit": "nM"}, {"measurement": "GI50", "setting": "[6]", "value": "< 10", "unit": "nM"}, {"measurement": "TGI", "setting": "[6]", "value": 1340, "unit": "nM"}, {"measurement": "GI50", "setting": "[7]", "value": "< 10", "unit": "nM"}, {"measurement": "TGI", "setting": "[7]", "value": 2820, "unit": "nM"}, {"measurement": "GI50", "setting": "[8]", "value": "< 10", "unit": "nM"}, {"measurement": "TGI", "setting": "[8]", "value": 60.2, "unit": "nM"}, {"measurement": "GI50", "setting": "[9]", "value": "< 10", "unit": "nM"}, {"measurement": "TGI", "setting": "[9]", "value": 1690, "unit": "nM"}, {"measurement": "GI50", "setting": "[10]", "value": 36.1, "unit": "nM"}, {"measurement": "TGI", "setting": "[10]", "value": 1190, "unit": "nM"}, {"measurement": "GI50", "setting": "[11]", "value": 18, "unit": "nM"}, {"measurement": "TGI", "setting": "[11]", "value": 2010, "unit": "nM"}, {"measurement": "GI50", "setting": "[12]", "value": 594, "unit": "nM"}, {"measurement": "TGI", "setting": "[12]", "value": 2340, "unit": "nM"}, {"measurement": "GI50", "setting": "[13]", "value": "< 10", "unit": "nM"}, {"measurement": "TGI", "setting": "[13]", "value": 378, "unit": "nM"}, {"measurement": "GI50", "setting": "[14]", "value": 47.7, "unit": "nM"}, {"measurement": "TGI", "setting": "[14]", "value": 970, "unit": "nM"}, {"measurement": "GI50", "setting": "[15]", "value": 69.1, "unit": "nM"}, {"measurement": "TGI", "setting": "[15]", "value": 1960, "unit": "nM"}, {"measurement": "GI50", "setting": "[16]", "value": "< 10", "unit": "nM"}, {"measurement": "TGI", "setting": "[16]", "value": 172, "unit": "nM"}, {"measurement": "GI50", "setting": "[17]", "value": "< 10", "unit": "nM"}, {"measurement": "TGI", "setting": "[17]", "value": 1090, "unit": "nM"}, {"measurement": "GI50", "setting": "[18]", "value": "< 10", "unit": "nM"}, {"measurement": "TGI", "setting": "[18]", "value": 1140, "unit": "nM"}, {"measurement": "GI50", "setting": "[19]", "value": 427, "unit": "nM"}, {"measurement": "TGI", "setting": "[19]", "value": 2300, "unit": "nM"}, {"measurement": "GI50", "setting": "[20]", "value": "< 10", "unit": "nM"}, {"measurement": "TGI", "setting": "[20]", "value": 34.1, "unit": "nM"}, {"measurement": "GI50", "setting": "[21]", "value": 22.6, "unit": "nM"}, {"measurement": "TGI", "setting": "[21]", "value": 1210, "unit": "nM"}, {"measurement": "GI50", "setting": "[22]", "value": "< 10", "unit": "nM"}, {"measurement": "TGI", "setting": "[22]", "value": "< 10", "unit": "nM"}, {"measurement": "GI50", "setting": "[23]", "value": "< 10", "unit": "nM"}, {"measurement": "TGI", "setting": "[23]", "value": 1680, "unit": "nM"}, {"measurement": "GI50", "setting": "[24]", "value": 12.4, "unit": "nM"}, {"measurement": "TGI", "setting": "[24]", "value": 1500, "unit": "nM"}, {"measurement": "GI50", "setting": "[25]", "value": 25.5, "unit": "nM"}, {"measurement": "TGI", "setting": "[25]", "value": 739, "unit": "nM"}, {"measurement": "GI50", "setting": "[26]", "value": "< 10", "unit": "nM"}, {"measurement": "TGI", "setting": "[26]", "value": 1060, "unit": "nM"}, {"measurement": "GI50", "setting": "[27]", "value": "< 10.8", "unit": "nM"}, {"measurement": "TGI", "setting": "[27]", "value": 149, "unit": "nM"}, {"measurement": "GI50", "setting": "[28]", "value": 73.3, "unit": "nM"}, {"measurement": "TGI", "setting": "[28]", "value": 4770, "unit": "nM"}, {"measurement": "GI50", "setting": "[29]", "value": "< 13.7", "unit": "nM"}, {"measurement": "TGI", "setting": "[29]", "value": 1330, "unit": "nM"}, {"measurement": "GI50", "setting": "[30]", "value": "< 10", "unit": "nM"}, {"measurement": "TGI", "setting": "[30]", "value": "< 10", "unit": "nM"}, {"measurement": "GI50", "setting": "[31]", "value": "< 10", "unit": "nM"}, {"measurement": "TGI", "setting": "[31]", "value": "< 34", "unit": "nM"}, {"measurement": "GI50", "setting": "[32]", "value": "< 10", "unit": "nM"}, {"measurement": "TGI", "setting": "[32]", "value": 14.8, "unit": "nM"}, {"measurement": "GI50", "setting": "[33]", "value": "< 10", "unit": "nM"}, {"measurement": "TGI", "setting": "[33]", "value": 1030, "unit": "nM"}, {"measurement": "GI50", "setting": "[34]", "value": "< 10", "unit": "nM"}, {"measurement": "TGI", "setting": "[34]", "value": 145, "unit": "nM"}, {"measurement": "GI50", "setting": "[35]", "value": "< 10", "unit": "nM"}, {"measurement": "GI50", "setting": "[36]", "value": "< 10", "unit": "nM"}, {"measurement": "TGI", "setting": "[36]", "value": 11.5, "unit": "nM"}, {"measurement": "GI50", "setting": "[37]", "value": "< 10", "unit": "nM"}, {"measurement": "TGI", "setting": "[37]", "value": 117, "unit": "nM"}, {"measurement": "GI50", "setting": "[38]", "value": "< 10", "unit": "nM"}, {"measurement": "TGI", "setting": "[38]", "value": 90.5, "unit": "nM"}, {"measurement": "GI50", "setting": "[39]", "value": "< 10", "unit": "nM"}, {"measurement": "TGI", "setting": "[39]", "value": "< 10", "unit": "nM"}, {"measurement": "GI50", "setting": "[40]", "value": "< 10", "unit": "nM"}, {"measurement": "TGI", "setting": "[40]", "value": 4150, "unit": "nM"}, {"measurement": "GI50", "setting": "[41]", "value": "< 10", "unit": "nM"}, {"measurement": "TGI", "setting": "[41]", "value": 192, "unit": "nM"}, {"measurement": "GI50", "setting": "[42]", "value": "< 10", "unit": "nM"}, {"measurement": "TGI", "setting": "[42]", "value": 122, "unit": "nM"}, {"measurement": "GI50", "setting": "[43]", "value": "< 10", "unit": "nM"}, {"measurement": "TGI", "setting": "[43]", "value": 26.4, "unit": "nM"}, {"measurement": "GI50", "setting": "[44]", "value": 280, "unit": "nM"}, {"measurement": "TGI", "setting": "[44]", "value": 11800, "unit": "nM"}, {"measurement": "GI50", "setting": "[45]", "value": "< 21.1", "unit": "nM"}, {"measurement": "TGI", "setting": "[45]", "value": 1190, "unit": "nM"}, {"measurement": "GI50", "setting": "[46]", "value": "< 10", "unit": "nM"}, {"measurement": "TGI", "setting": "[46]", "value": "< 10", "unit": "nM"}, {"measurement": "GI50", "setting": "[47]", "value": 17.1, "unit": "nM"}, {"measurement": "TGI", "setting": "[47]", "value": 586, "unit": "nM"}, {"measurement": "GI50", "setting": "[48]", "value": "< 23.2", "unit": "nM"}, {"measurement": "TGI", "setting": "[48]", "value": 557, "unit": "nM"}, {"measurement": "GI50", "setting": "[49]", "value": "< 10", "unit": "nM"}, {"measurement": "TGI", "setting": "[49]", "value": 19900, "unit": "nM"}, {"measurement": "GI50", "setting": "[50]", "value": "< 15", "unit": "nM"}, {"measurement": "TGI", "setting": "[50]", "value": "< 48.2", "unit": "nM"}]}
